Data: ChEMBL document CHEMBL5729119, “Aliphatic acid amide derivative” (2022)
pKi: −log10 of the molar value.

Tests used:
[1] = target: 5-hydroxytryptamine receptor 7 (Homo sapiens, UniProt P34969); experiment: Binding Activity Assay: Human 5-HT2A Receptor, Human 5-HT7 Receptor, and Human D2 Receptor: Binding affinity of the present compound for human 5-HT2A receptor, human 5-HT7 receptor, and human D2 receptor was measured by the following procedures.CHO cell membrane fraction in which human 5-HT2A receptor, human 5-HT7 receptor, or human D2 receptor was expressed was purchased from PerkinElmer, Inc. …
D(2) dopamine receptor = D(2) dopamine receptor (Homo sapiens, UniProt P14416); experiment: as above
Chain of D(2) dopamine receptor (P14416 whole entry): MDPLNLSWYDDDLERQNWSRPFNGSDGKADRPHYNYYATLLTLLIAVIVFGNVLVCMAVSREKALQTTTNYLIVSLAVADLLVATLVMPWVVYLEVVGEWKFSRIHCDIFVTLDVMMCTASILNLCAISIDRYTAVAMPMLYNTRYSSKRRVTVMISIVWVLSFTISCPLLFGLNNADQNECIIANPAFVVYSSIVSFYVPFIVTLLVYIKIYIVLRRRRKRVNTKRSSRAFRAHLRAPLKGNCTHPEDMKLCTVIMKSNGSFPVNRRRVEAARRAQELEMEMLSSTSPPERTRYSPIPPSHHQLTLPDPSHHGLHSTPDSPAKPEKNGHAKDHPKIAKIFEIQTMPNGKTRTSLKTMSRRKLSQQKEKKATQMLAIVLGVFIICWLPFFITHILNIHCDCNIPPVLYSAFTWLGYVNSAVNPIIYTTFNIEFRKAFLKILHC

Chain of 5-hydroxytryptamine receptor 7 (P34969 whole entry): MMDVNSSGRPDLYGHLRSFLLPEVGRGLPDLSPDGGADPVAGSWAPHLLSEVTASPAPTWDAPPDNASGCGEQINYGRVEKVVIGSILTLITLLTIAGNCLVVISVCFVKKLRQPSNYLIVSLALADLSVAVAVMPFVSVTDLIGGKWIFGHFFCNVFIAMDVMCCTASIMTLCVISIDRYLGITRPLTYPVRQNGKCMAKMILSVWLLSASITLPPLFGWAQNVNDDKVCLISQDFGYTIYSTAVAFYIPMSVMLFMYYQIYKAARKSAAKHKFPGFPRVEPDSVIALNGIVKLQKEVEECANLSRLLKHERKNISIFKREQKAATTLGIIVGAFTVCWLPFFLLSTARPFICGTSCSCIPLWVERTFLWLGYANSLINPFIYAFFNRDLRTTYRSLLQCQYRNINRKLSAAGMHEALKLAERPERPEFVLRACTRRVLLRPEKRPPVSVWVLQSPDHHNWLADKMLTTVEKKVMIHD

pKi [1]	pKi (D(2) dopamine receptor)	SMILES
7.69	< 6.00	CCN(CCN1CCC(c2noc3cc(F)c(C)cc23)CC1)C(=O)[C@H](C)O
8.96	> 7.00	CCN(CCN1CCC(c2noc3cc(F)ccc23)CC1)C(=O)C1(O)CC1
8.31	6.81	CCN(CCN1CCC(c2noc3cc(F)ccc23)CC1)C(=O)CCO
